Reference: patent US20090156582A1, “Pyrazole Compound” (priority 2005, published 2009)

molecular target: T1, recombinant GSK3β enzyme (human GSK3β) (Homo sapiens, UniProt P49841); assay: Measurement of GSK3β inhibitory activity; type: biochemical; details: glycogen synthase peptide substrate, Kinase Glo luminescence, read-out: IC50 (concentration of test compound needed for 50% inhibition of luminescent intensity), GSK3β inhibitory activity
T1 construct: FLAG (N); made in house; host or cells: Sf-21 insect cells, recombinant baculovirus (pFASTBAC1 / BAC-TO-BAC)
T1 sequence (P49841 whole entry): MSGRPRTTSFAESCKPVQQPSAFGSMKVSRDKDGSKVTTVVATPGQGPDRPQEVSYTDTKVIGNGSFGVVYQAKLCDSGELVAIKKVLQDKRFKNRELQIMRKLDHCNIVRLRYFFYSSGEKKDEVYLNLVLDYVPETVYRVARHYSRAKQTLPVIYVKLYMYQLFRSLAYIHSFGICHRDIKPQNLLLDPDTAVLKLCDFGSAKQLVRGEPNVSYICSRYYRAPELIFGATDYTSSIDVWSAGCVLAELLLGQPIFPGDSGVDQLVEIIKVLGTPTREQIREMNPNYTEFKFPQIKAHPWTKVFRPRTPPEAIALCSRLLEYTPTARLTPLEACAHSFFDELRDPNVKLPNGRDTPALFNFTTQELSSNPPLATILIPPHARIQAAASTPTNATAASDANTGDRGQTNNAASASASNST
Source text: Human GSK3β gene was cloned by a PCR method using a primer set:
prepared using human brain cDNA (Clontech; trade name: QUICK-Clone cDNA) as a template and in reference to the base sequence of GSK3β gene registered in GenBank under Accession Number NM_002093.
PCR was done according to the protocol attached to KOD plus DNA polymerase (Toyo Boseki Kabushiki Kaisha). The obtained PCR product was electrophoresed on agarose gel (1%), and 1.2 kb of DNA fragment including GSK3β gene was collected from the gel and then digested with restriction enzymes EcoR I and Sal I. The restriction enzyme-treated DNA was electrophoresed on agarose gel (1%). The obtained DNA fragment was collected, and ligated to the plasmid pFASTBAC1 (Invitrogen), which had been digested with restriction enzyme EcoR I and Sal I, to produce expression plasmid pFB-GSK3B. The base sequence of insertion fragment was confirmed to find that it corresponded to the objective sequence. In addition, virus stock BAC-GSK3B of recombinant Baculovirus was prepared using BAC-TO-BAC Baculovirus Expression System (Invitrogen).
Sf-21 cells (Invitrogen) were seeded on Sf-900 II SFM medium (Invitrogen)(150 ml) containing 10% fetal calf serum at 1×10^6 cells/ml, and cultured at 27° C. for 24 hr. The virus stock […] obtained above of recombinant Baculovirus was added by 150 μl to the obtained culture medium, and the cells were cultured for another 60 hr. The culture medium was centrifuged (3000 rpm, 10 min) to separate the cells, and the cells were washed once with PBS. The cells were suspended in 10 ml of cell lysis buffer (25 mM HEPES (pH 7.5), 1% Triton X, 130 mM sodium chloride, 1 mM EDTA, 1 mM Dithiothreitol, 25 mM β-glycerophosphate, Protease inhibitor Complete (Boehringer), 1 mM Sodium orthovanadate), treated 4 times using a homogenizer (POLYTRON) at 20000 rpm for 30 sec to disrupt the cells. The disrupted solution of cells was centrifuged (40000 rpm, 45 min.), and GSK3β was purified from the obtained supernatant using Anti-FLAG M2 Affinity Gel (Sigma Ltd.).
10 μl of ATP solution (2.5 μM ATP) was added to the obtained mixture, and the mixture was reacted at room temperature for 30 min. Kinase Glo Reagent (Promega) (50 μl) was added to the reaction solution to stop the reaction. After reaction at room temperature for 10 min, the luminescent intensity was measured using ARVO multilabel counter (PerkinElmer Life Sciences). The concentrations of the test compounds needed for 50% inhibition of luminescent intensity (IC50 value) were calculated by PRISM 3.0 (GraphPad Software).

SMILES | IC50 [µM]
O=C(Nc1c[nH]nc1C(=O)NCc1ccco1)c1cnccn1 [compound 162] | < 0.1
O=C(Nc1c[nH]nc1C(=O)NCCc1ccc(Br)cc1)c1ccccn1 [Example 351, N-(3-(((2-(4-bromophenyl)ethyl)amino)carbonyl)-1H-pyrazol-4-yl)pyridine-2-carboxamide] | < 0.1
O=C(Cc1c[nH]c2ccccc12)Nc1c[nH]nc1C(=O)NCCc1ccccc1 [Example 130, 4-[(1H-indol-3-ylacetyl)amino]-N-(2-phenylethyl)-1H-pyrazole-3-carboxamide] | 0.128
O=C(Nc1c[nH]nc1C(=O)NCCc1ccccc1)c1ccc(F)cc1F [Example 134, 4-[(2,4-difluorobenzoyl)amino]-N-(2-phenylethyl)-1H-pyrazole-3-carboxamide] | < 0.1
O=C(COc1ccccc1)Nc1c[nH]nc1C(=O)NCCc1ccccc1 [Example 123, 4-[(phenoxyacetyl)amino]-N-(2-phenylethyl)-1H-pyrazole-3-carboxamide] | < 0.1
CC(=O)Nc1cccc(C(=O)Nc2c[nH]nc2C(=O)NC(C)C)c1 [compound 034] | < 0.1
O=C(COc1ccccc1)Nc1c[nH]nc1C(=O)NCc1ccco1 [Example 145, N-(2-furylmethyl)-4-[(phenoxyacetyl)amino]-1H-pyrazole-3-carboxamide] | < 0.1
CNC(=O)c1n[nH]cc1NC(=O)C1CCCCC1 [compound 005] | 0.307
O=C(Cc1c[nH]c2ccccc12)Nc1c[nH]nc1C(=O)NC1CCCC1 [compound 069] | < 0.1
CCOCC(=O)Nc1c[nH]nc1C(=O)NC(C)C [compound 021] | < 0.1
O=C(Nc1c[nH]nc1C(=O)NC1Cc2ccccc2C1)c1ccccn1 [Example 339] | < 0.1
O=C(Nc1c[nH]nc1C(=O)NC1CCCC1)c1ccc(OC(F)(F)F)cc1 [compound 076] | < 0.1
O=C(/C=C/c1ccccc1)Nc1c[nH]nc1C(=O)N1CCCC1 [compound 045] | 0.269
N#CCNC(=O)c1n[nH]cc1NC(=O)c1ccccn1 [Example 395, N-(3-(((cyanomethyl)amino)carbonyl)-1H-pyrazol-4-yl)pyridine-2-carboxamide] | < 0.1
O=C(Nc1c[nH]nc1C(=O)NCCc1c[nH]c2ccccc12)c1ccccn1 [Example 348, N-(3-(((2-(1H-indol-3-yl)ethyl)amino)carbonyl)-1H-pyrazol-4-yl)pyridine-2-carboxamide] | < 0.1
CC1(C)C2CC[C@@]1(CS(=O)(=O)Nc1c[nH]nc1C(=O)NCCc1ccccc1)C(=O)C2 [compound 305] | < 0.1
O=C(COc1ccccc1)Nc1c[nH]nc1C(=O)NC1CCCC1 [compound 062] | < 0.1
O=C(CC1CCCC1)Nc1c[nH]nc1C(=O)NCCc1ccccc1 [Example 121, 4-[(cyclopentylacetyl)amino]-N-(2-phenylethyl)-1H-pyrazole-3-carboxamide] | < 0.1
CC(C)OCCNC(=O)c1n[nH]cc1NC(=O)c1ccccn1 [Example 357, N-(3-(((2-isopropoxyethyl)amino)carbonyl)-1H-pyrazol-4-yl)pyridine-2-carboxamide] | < 0.1
O=C(Nc1c[nH]nc1C(=O)NCc1ccccc1)c1ccccn1 [Example 337, N-(3-((benzylamino)carbonyl)-1H-pyrazol-4-yl)pyridine-2-carboxamide] | < 0.1
CC(=O)Nc1c[nH]nc1C(=O)NC(C)C [compound 017] | < 0.1
CC(=O)Nc1cccc(C(=O)Nc2c[nH]nc2C(=O)NCc2ccccc2)c1 [Example 116, 4-{[3-(acetylamino)benzoyl]amino}-N-benzyl-1H-pyrazole-3-carboxamide] | < 0.1
CNC(=O)c1n[nH]cc1NC(=O)c1ccccn1 [Example 346, N-(3-((methylamino)carbonyl)-1H-pyrazol-4-yl)pyridine-2-carboxamide] | < 0.1
O=C(Nc1c[nH]nc1C(=O)NCCC(F)(F)F)c1ccccn1 [Example 393, N-(3-(((3,3,3-trifluoropropyl)amino)carbonyl)-1H-pyrazol-4-yl)pyridine-2-carboxamide] | < 0.1
N#CCCNC(=O)c1n[nH]cc1NC(=O)c1ccccn1 [Example 358, N-(3-(((2-cyanoethyl)amino)carbonyl)-1H-pyrazol-4-yl)pyridine-2-carboxamide] | < 0.1
O=C(Nc1c[nH]nc1C(=O)NCc1ccccc1)c1ccc(Oc2ccccc2)cc1 [Example 114, N-benzyl-4-[(4-phenoxybenzoyl)amino]-1H-pyrazole-3-carboxamide] | 0.394

Continued, values first:

IC50 [µM] | SMILES
< 0.1 | Cc1cccc(C(=O)Nc2c[nH]nc2C(=O)NCCOc2ccc(F)cc2)n1 [Example 428]
< 0.1 | O=C(Nc1c[nH]nc1C(=O)Nc1ccccc1)c1cnccn1 [compound 098]
< 0.1 | CC(C)NC(=O)c1n[nH]cc1NC(=O)C(c1ccccc1)c1ccccc1 [compound 019]
< 0.1 | O=C(Nc1ccccc1)c1n[nH]cc1NC(=O)C1CCCCC1 [compound 084]
< 0.1 | O=C(Nc1c[nH]nc1C(=O)NC1CCCC1)c1ccc(C(F)(F)F)cc1 [compound 071]
0.379 | O=C(Cc1c[nH]c2ccccc12)Nc1c[nH]nc1C(=O)Nc1ccccc1 [compound 089]
< 0.1 | CC(C)NC(=O)c1n[nH]cc1NC(=O)c1ccc(F)cc1F [compound 031]
< 0.1 | O=C(Nc1c[nH]nc1C(=O)NC1CCCC1)c1cccc2c1OCC2 [Example 362, N-cyclopentyl-4-((2,3-dihydro-1-benzofuran-7-ylcarbonyl)amino)-1H-pyrazole-3-carboxamide]
< 0.1 | CC(=O)Nc1cccc(C(=O)Nc2c[nH]nc2C(=O)NCCS(=O)(=O)c2ccc(Cl)cc2)c1 [Example 383, 4-((3-(acetylamino)benzoyl)amino)-N-(2-((4-chlorophenyl)sulfonyl)ethyl)-1H-pyrazole-3-carboxamide]
< 0.1 | O=C(Nc1c[nH]nc1C(=O)NCCOc1ccccc1)c1ccccn1 [Example 355, N-(3-(((2-phenoxyethyl)amino)carbonyl)-1H-pyrazol-4-yl)pyridine-2-carboxamide]
< 0.1 | O=C(NCc1ccccc1)c1n[nH]cc1NC(=O)C1CCCCC1 [Example 102, N-benzyl-4-[(cyclohexylcarbonyl)amino]-1H-pyrazole-3-carboxamide]
< 0.1 | CC(=O)Nc1cccc(C(=O)Nc2c[nH]nc2C(=O)NCCC#N)c1 [Example 372, 4-((3-(acetylamino)benzoyl)amino)-N-(2-cyanoethyl)-1H-pyrazole-3-carboxamide]
< 0.1 | COc1ccc(C(=O)Nc2c[nH]nc2C(=O)NCCc2ccccc2)cc1 [Example 133, 4-[(4-methoxybenoyl)amino]-N-(2-phenylethyl)-1H-pyrazole-3-carboxamide]
0.14 | O=C(Nc1c[nH]nc1C(=O)NCc1ccco1)c1ccc(Oc2ccccc2)cc1 [compound 157]
0.101 | O=C(Nc1c[nH]nc1C(=O)NCCc1ccccc1)c1ccc(C(F)(F)F)cc1 [Example 132, N-(2-phenylethyl)-4-{[4-(trifluoromethyl)ben-zoyl]-amino}-1H-pyrazole-3-carboxamide]
0.388 | O=C(/C=C/c1ccccc1)Nc1c[nH]nc1C(=O)NCc1ccco1 [Example 148, N-(2-furylmethyl)-4-{[(2E)-3-phenylprop-2-enoyl]amino}-1H-pyrazole-3-carboxamide]
0.155 | O=C(CC1CCCC1)Nc1c[nH]nc1C(=O)NCc1ccco1 [Example 143, 4-[(cyclopentylacetyl)amino]-N-(2-furylmethyl)-1H-pyrazole-3-carboxamide]
< 0.1 | CC(=O)Nc1c[nH]nc1C(=O)NC1CCCC1 [compound 059]
< 0.1 | CC(C)NC(=O)c1n[nH]cc1NC(=O)c1ccc(OC(F)(F)F)cc1 [compound 035]
< 0.1 | O=C(Nc1c[nH]nc1C(=O)NCCO)c1ccccn1 [Example 401, N-(3-(((2-hydroxyethyl)amino)carbonyl)-1H-pyrazol-4-yl)pyridine-2-carboxamide]
< 0.1 | O=C(Nc1c[nH]nc1C(=O)NCCc1ccccc1)c1ccccc1 [Example 131, 4-benzoylamino-N-(2-phenylethyl)-1H-pyrazole-3-carboxamide]
